Assay results: US8378104B2 (OSI Pharmaceuticals, LLC, priority 2010, dated 2013)

What was measured:
[1] = target: T1, TAK1-TAB1 fusion protein (Homo sapiens, UniProt O43318); assay: TAK1 biochemical assay (AlphaScreen, GST-MAP2K7 substrate); conditions: TAK1-TAB1 fusion protein, GST-MAP2K7 substrate; read-out: mean TAK1 IC50 (Col. A)
T1 construct: purchased Carna
T1 sequence (O43318 with tags, fused parts or gaps limits assumed): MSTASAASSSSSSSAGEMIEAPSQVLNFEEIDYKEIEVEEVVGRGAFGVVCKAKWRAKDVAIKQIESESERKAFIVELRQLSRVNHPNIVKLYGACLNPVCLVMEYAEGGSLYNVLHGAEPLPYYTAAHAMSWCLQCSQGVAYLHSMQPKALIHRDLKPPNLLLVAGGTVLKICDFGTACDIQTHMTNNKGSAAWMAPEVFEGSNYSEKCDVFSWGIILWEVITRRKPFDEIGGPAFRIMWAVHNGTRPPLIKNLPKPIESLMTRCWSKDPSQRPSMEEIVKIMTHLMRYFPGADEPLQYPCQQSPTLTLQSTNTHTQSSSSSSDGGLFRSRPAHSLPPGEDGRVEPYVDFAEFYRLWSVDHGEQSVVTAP

[2] = system: pJNK in HCT-116 cells; assay: Phospho-JNK (Thr183/Tyr185) Meso Scale ELISA assay, TNFα-stimulated HCT-116 cells; format: cell-based; conditions: Homo sapiens, read-out: mean HCT-116 pJNK ELISA IC50 (Col. B)
Outline: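 Meso Scale ELISA read of phospho-JNK (Thr183/Tyr185) in lysed HCT-116 cells. Cells were serum-reduced to 1% FCS for 2 hours, exposed to test drug for 4 hrs at 37° C, then given 10 ng/mL TNFα (final) for 10 minutes before lysis.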

[3] = system: p-p38 in HCT-116 cells; assay: Phospho-p38 Meso Scale ELISA assay, TNFα-stimulated HCT-116 cells; format: cell-based; conditions: Homo sapiens, read-out: mean HCT-116 p-p38 ELISA IC50 (Col. C)
Outline: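 Phospho-p38 measured by Meso Scale ELISA on diluted lysates, captured overnight at 4° C. Before lysis, HCT-116 cells were serum-reduced (1% FCS, 2 h), treated with compounds 4 h at 37° C and stimulated 10 min with 10 ng/mL TNFα final.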

| Compound | IC50 [1] | IC50 [2] | IC50 [3] |
| --- | --- | --- | --- |
| CC(=O)N1CCC(n2cc(-c3cnc(N)c4oc(-c5cccc(O)c5)cc34)cn2)CC1 [Example 132, 1-(4-{4-[7-amino-2-(3-hydroxyphenyl)furo[2,3-c]pyridin-4-yl]-1H-pyrazol-1-yl}piperidin-1-yl)ethanone] | < 0.1 µM | 0.1 to 1 µM | 0.1 to 1 µM |
| CSc1cccc(-c2cc3c(-c4cnn(C5CCN(C(C)=O)CC5)c4)cnc(N)c3o2)c1 [Example 133, 1-[4-(4-{7-amino-2-[3-(methylsulfanyl)phenyl]furo[2,3-c]pyridin-4-yl}-1H-pyrazol-1-yl)piperidin-1-yl]ethanone] | 1 to 10 µM | 1 to 10 µM | 1 to 10 µM |
| CC(=O)N1CCC(n2cc(-c3cnc(N)c4oc(-c5ccc(O)cc5C)cc34)cn2)CC1 [Example 135, 1-(4-{4-[7-amino-2-(4-hydroxy-2-methylphenyl)furo[2,3-c]pyridin-4-yl]-1H-pyrazol-1-yl}piperidin-1-yl)ethanone] | 0.1 to 1 µM | 0.1 to 1 µM | 0.1 to 1 µM |
| CC(=O)N1CCC(n2cc(-c3cnc(N)c4oc(-c5ccc(O)c(Cl)c5)cc34)cn2)CC1 [Example 136, 1-(4-{4-[7-amino-2-(3-chloro-4-hydroxyphenyl)furo[2,3-c]pyridin-4-yl]-1H-pyrazol-1-yl}piperidin-1-yl)ethanone] | 0.1 to 1 µM | 0.1 to 1 µM | 1 to 10 µM |
| CC(=O)N1CCC(n2cc(-c3cnc(N)c4oc(-c5cc(C)c(O)c(C)c5)cc34)cn2)CC1 [Example 138, 1-(4-{4-[7-amino-2-(4-hydroxy-3,5-dimethylphenyl)furo[2,3-c]pyridin-4-yl]-1H-pyrazol-1-yl}piperidin-1-yl)ethanone] | 1 to 10 µM | 0.1 to 1 µM | 1 to 10 µM |
| CC(=O)N1CCC(n2cc(-c3cnc(N)c4oc(C5=CCCCC5)cc34)cn2)CC1 [Example 142, 1-(4-{4-[7-amino-2-(cyclohex-1-en-1-yl)furo[2,3-c]pyridin-4-yl]-1H-pyrazol-1-yl}piperidin-1-yl)ethanone] | 0.1 to 1 µM | 0.1 to 1 µM | 1 to 10 µM |
| CC(=O)N1CCC(n2cc(-c3cnc(N)c4oc(-c5cccc(C#N)c5)cc34)cn2)CC1 [Example 143, 3-{4-[1-(1-acetylpiperidin-4-yl)-1H-pyrazol-4-yl]-7-aminofuro[2,3-c]pyridin-2-yl}benzonitrile] | 0.1 to 1 µM | 0.1 to 1 µM | 0.1 to 1 µM |
| CC(=O)N1CCC(n2cc(-c3cnc(N)c4oc(-c5ccc6nn(C)cc6c5)cc34)cn2)CC1 [Example 145, 1-(4-{4-[7-amino-2-(2-methyl-2H-indazol-5-yl)furo[2,3-c]pyridin-4-yl]-1H-pyrazol-1-yl}piperidin-1-yl)ethanone] | > 10 µM | 1 to 10 µM | 1 to 10 µM |
| CC(=O)N1CCC(n2cc(-c3cnc(N)c4oc(-c5ccc6c(cnn6C)c5)cc34)cn2)CC1 [Example 146, 1-(4-{4-[7-amino-2-(1-methyl-1H-indazol-5-yl)furo[2,3-c]pyridin-4-yl]-1H-pyrazol-1-yl}piperidin-1-yl)ethanone] | 1 to 10 µM | 0.1 to 1 µM | 1 to 10 µM |
| CC(=O)N1CCC(n2cc(-c3cnc(N)c4oc(-c5cnn(Cc6cccnc6)c5)cc34)cn2)CC1 [Example 148, 1-[4-(4-{7-amino-2-[1-(pyridin-3-ylmethyl)-1H-pyrazol-4-yl]furo[2,3-c]pyridin-4-yl}-1H-pyrazol-1-yl)piperidin-1-yl]ethanone] | 1 to 10 µM | > 10 µM | > 10 µM |
| CC(=O)N1CCC(n2cc(-c3cnc(N)c4oc(-c5ccccc5)cc34)cn2)CC1 [Example 149, 1-{4-[4-(7-amino-2-phenylfuro[2,3-c]pyridin-4-yl)-1H-pyrazol-1-yl]piperidin-1-yl}ethanone] | 1 to 10 µM | 0.1 to 1 µM | 1 to 10 µM |
| CC(=O)N1CCC(n2cc(-c3cnc(N)c4oc(-c5ccc6c(c5)CCC(=O)N6)cc34)cn2)CC1 [Example 154, 6-{4-[1-(1-acetylpiperidin-4-yl)-1H-pyrazol-4-yl]-7-aminofuro[2,3-c]pyridin-2-yl}-3,4-dihydroquinolin-2(1H)-one] | 0.1 to 1 µM | 1 to 10 µM | 1 to 10 µM |
| CC(=O)N1CCC(n2cc(-c3cnc(N)c4oc(-c5cnc6[nH]ccc6c5)cc34)cn2)CC1 [Example 155, 1-(4-{4-[7-amino-2-(1H-pyrrolo[2,3-b]pyridin-5-yl)furo[2,3-c]pyridin-4-yl]-1H-pyrazol-1-yl}piperidin-1-yl)ethanone] | 0.1 to 1 µM | 0.1 to 1 µM | 1 to 10 µM |
| CC(=O)N1CCC(n2cc(-c3cnc(N)c4oc(-c5ccc6[nH]nnc6c5)cc34)cn2)CC1 [Example 158, 1-(4-{4-[7-amino-2-(1H-benzotriazol-5-yl)furo[2,3-c]pyridin-4-yl]-1H-pyrazol-1-yl}piperidin-1-yl)ethanone] | < 0.1 µM | > 10 µM | > 10 µM |
| CC(=O)N1CCC(n2cc(-c3cnc(N)c4oc(-c5cccc(CO)c5)cc34)cn2)CC1 [Example 169, 1-[4-(4-{7-amino-2-[3-(hydroxymethyl)phenyl]furo[2,3-c]pyridin-4-yl}-1H-pyrazol-1-yl)piperidin-1-yl]ethanone] | 0.1 to 1 µM | 0.1 to 1 µM | 1 to 10 µM |
| CC(=O)N1CCC(n2cc(-c3cnc(N)c4oc(-c5ccccc5C#N)cc34)cn2)CC1 [Example 171, 2-{4-[1-(1-acetylpiperidin-4-yl)-1H-pyrazol-4-yl]-7-aminofuro[2,3-c]pyridin-2-yl}benzonitrile] | 0.1 to 1 µM | 1 to 10 µM | 1 to 10 µM |
| CC(=O)N1CCC(n2cc(-c3cnc(N)c4oc(-c5ccsc5)cc34)cn2)CC1 [Example 174, 1-(4-{4-[7-amino-2-(thiophen-3-yl)furo[2,3-c]pyridin-4-yl]-1H-pyrazol-1-yl}piperidin-1-yl)ethanone] | 0.1 to 1 µM | 1 to 10 µM | 1 to 10 µM |
| CC(=O)N1CCC(n2cc(-c3cnc(N)c4oc(-c5cccc6[nH]ccc56)cc34)cn2)CC1 [Example 176, 1-(4-{4-[7-amino-2-(1H-indol-4-yl)furo[2,3-c]pyridin-4-yl]-1H-pyrazol-1-yl}piperidin-1-yl)ethanone] | < 0.1 µM | 0.1 to 1 µM | 0.1 to 1 µM |
| CC(=O)N1CCC(n2cc(-c3cnc(N)c4oc(-c5cccc6[nH]ncc56)cc34)cn2)CC1 [Example 177, 1-(4-{4-[7-amino-2-(1H-indazol-4-yl)furo[2,3-c]pyridin-4-yl]-1H-pyrazol-1-yl}piperidin-1-yl)ethanone] | < 0.1 µM | 0.1 to 1 µM | 0.1 to 1 µM |
| CC(=O)N1CCC(n2cc(-c3cnc(N)c4oc(-c5c(C)n[nH]c5C)cc34)cn2)CC1 [Example 180, 1-(4-{4-[7-amino-2-(3,5-dimethyl-1H-pyrazol-4-yl)furo[2,3-c]pyridin-4-yl]-1H-pyrazol-1-yl}piperidin-1-yl)ethanone] | 0.1 to 1 µM | 1 to 10 µM | 1 to 10 µM |
| CC(=O)N1CCC(n2cc(-c3cnc(N)c4oc(-c5csc6cnccc56)cc34)cn2)CC1 [Example 189, 1-(4-{4-[7-amino-2-(thieno[2,3-c]pyridin-3-yl)furo[2,3-c]pyridin-4-yl]-1H-pyrazol-1-yl}piperidin-1-yl)ethanone] | < 0.1 µM | < 0.1 µM | 0.1 to 1 µM |
| CC(=O)N1CCC(n2cc(-c3cnc(N)c4oc(-c5cccc6c5OC(F)(F)O6)cc34)cn2)CC1 [Example 191, 1-(4-{4-[7-amino-2-(2,2-difluoro-1,3-benzodioxol-4-yl)furo[2,3-c]pyridin-4-yl]-1H-pyrazol-1-yl}piperidin-1-yl)ethanone] | 0.1 to 1 µM | 0.1 to 1 µM | 0.1 to 1 µM |
| CC(=O)N1CCC(n2cc(-c3cnc(N)c4oc(-c5cccc6nn(C)cc56)cc34)cn2)CC1 [Example 192, 1-(4-{4-[7-amino-2-(2-methyl-2H-indazol-4-yl)furo[2,3-c]pyridin-4-yl]-1H-pyrazol-1-yl}piperidin-1-yl)ethanone] | 1 to 10 µM | 1 to 10 µM | 1 to 10 µM |
| CC(=O)N1CCC(n2cc(-c3cnc(N)c4oc(-c5cccc6ccnn56)cc34)cn2)CC1 [Example 197, 1-(4-{4-[7-amino-2-(pyrazolo[1,5-a]pyridin-7-yl)furo[2,3-c]pyridin-4-yl]-1H-pyrazol-1-yl}piperidin-1-yl)ethanone] | 0.1 to 1 µM | 0.1 to 1 µM | 0.1 to 1 µM |
| CC(=O)N1CCC(n2cc(-c3cnc(N)c4oc(-c5cccc(OCC#N)c5)cc34)cn2)CC1 [Example 205, (3-{4-[1-(1-acetylpiperidin-4-yl)-1H-pyrazol-4-yl]-7-aminofuro[2,3-c]pyridin-2-yl}phenoxy)acetonitrile] | 0.1 to 1 µM | 0.1 to 1 µM | 0.1 to 1 µM |
